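Assay format: 96-well plates, 48-hour exposure. Abbreviation: GI50, concentration required for 50% inhibition of growth. TGI marks complete inhibition of growth.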

Here are results for 13 compounds from PubChem BioAssay (NCI).

Test systems include HOP-62 NSCLC; KM12 colon; M14 melanoma; MOLT-4 leukemia; NCI-H23 lung; SK-MEL-2 melanoma; SNB-19 CNS; SW-620 colon; TK-10 renal; UACC-62 melanoma.
Holding throughout (assay): inhibition of tumour cell growth, NCI panel, 48 h

In the case of `O=c1[nH]c2ccccc2c(O)c1/C=N/C(=S)NC1CCCCC1`, the TGI in the assay on HOP-62 NSCLC, with KM12 colon, in the assay on M14 melanoma, with MOLT-4 leukemia, in the assay with NCI-H23 lung and with SK-MEL-2 melanoma was over 100 µM each time. The TGI with SNB-19 CNS, in the assay on SW-620 colon, in the assay on TK-10 renal and with UACC-62 melanoma was over 100 µM each time.
For the compound `COc1cc2c3c(n(C)c(=O)c2cc1OC)-c1cc2c(cc1/C3=C\CCCCCBr)OCO2`, the GI50 is 3.09 µM with HOP-62 NSCLC and 3.87 µM in the assay on UACC-62 melanoma. Besides, the TGI with HOP-62 NSCLC was 25.1 µM; in the assay on KM12 colon it was over 100 µM; with M14 melanoma it was over 100 µM; in the assay with MOLT-4 leukemia it was 10.5 µM; with NCI-H23 lung, over 100 µM; with SK-MEL-2 melanoma, over 100 µM. Moreover, the TGI in the assay with SNB-19 CNS was over 100 µM; in the assay on SW-620 colon, over 100 µM; in the assay with TK-10 renal, 55.8 µM; in the assay with UACC-62 melanoma, 29 µM.
For `NC1CCCCC1NCCNC1CCCCC1N` (configuration not stated), the TGI in the assay on HOP-62 NSCLC was over 100 µM; with KM12 colon, over 100 µM; in the assay on M14 melanoma, over 100 µM; in the assay on MOLT-4 leukemia, over 100 µM; in the assay on NCI-H23 lung it was 96.8 µM; in the assay with SK-MEL-2 melanoma, over 100 µM. The TGI in the assay on SNB-19 CNS, with SW-620 colon, in the assay on TK-10 renal and with UACC-62 melanoma was over 100 µM each time.
Take `O=C(c1ccccc1)c1nnn(Cc2ccccc2Cn2nnc(C(=O)c3ccccc3)c2C(=O)c2ccccc2)c1C(=O)c1ccccc1`: the TGI in the assay with HOP-62 NSCLC, with KM12 colon, with M14 melanoma, with MOLT-4 leukemia, in the assay with NCI-H23 lung and in the assay on SK-MEL-2 melanoma was over 100 µM in each case. Also, the TGI in the assay on SNB-19 CNS, in the assay on SW-620 colon, with TK-10 renal and in the assay with UACC-62 melanoma was over 100 µM throughout.
For the compound `CCOC(=O)CCc1cn2cc(Br)nc(OC)c2n1`, the TGI in the assay with HOP-62 NSCLC, in the assay with KM12 colon, in the assay with M14 melanoma, in the assay with MOLT-4 leukemia, in the assay on NCI-H23 lung and with SK-MEL-2 melanoma was over 100 µM throughout. The TGI in the assay on SNB-19 CNS, in the assay with SW-620 colon, with TK-10 renal and in the assay on UACC-62 melanoma was over 100 µM each time.
With `O=C(Nc1ccc(-n2cc(-c3ccncc3)c(-c3ccc(O)c(Cl)c3)n2)cc1)c1ccc(Cl)c(C(F)(F)F)c1`, the GI50 in the assay on HOP-62 NSCLC was 2.31 µM; in the assay on KM12 colon, 1.93 µM; with M14 melanoma, 0.946 µM; in the assay with MOLT-4 leukemia, 1.69 µM; with NCI-H23 lung it was 2.55 µM; in the assay with SK-MEL-2 melanoma, 1.22 µM. The GI50 in the assay with SNB-19 CNS was 2.52 µM; in the assay on SW-620 colon, 2.38 µM; with TK-10 renal it was 1.72 µM; with UACC-62 melanoma it was 3.38 µM. Besides, the TGI in the assay on HOP-62 NSCLC is over 50 µM; in the assay on KM12 colon, over 50 µM; in the assay on M14 melanoma, 2.08 µM; in the assay on MOLT-4 leukemia, 34.2 µM; in the assay on NCI-H23 lung it was over 50 µM; in the assay with SK-MEL-2 melanoma it was 3.32 µM. Also, the TGI is over 50 µM with SNB-19 CNS, over 50 µM with SW-620 colon, 18.1 µM in the assay on TK-10 renal and 14.2 µM in the assay on UACC-62 melanoma.
For `Cc1cn(C2CC(COCc3ccccc3)N(CCO[Si](C)(C)C(C)(C)C)O2)c(=O)[nH]c1=O` (configuration not stated), the TGI with HOP-62 NSCLC stood at 31 µM; with KM12 colon, 31.1 µM; with M14 melanoma it was 29.5 µM; in the assay with MOLT-4 leukemia it was 32.3 µM; with NCI-H23 lung, 30.7 µM; in the assay with SK-MEL-2 melanoma it was 30 µM. In addition, the TGI in the assay on SNB-19 CNS was determined as 27.2 µM; in the assay on SW-620 colon it was 35.6 µM; with TK-10 renal it was 27.3 µM; in the assay with UACC-62 melanoma, 24.3 µM.
In the case of `Cc1c(OCc2cccc3ccccc23)ccc2c(=O)cc(SCCN3CCOCC3)oc12`, the TGI with HOP-62 NSCLC, with KM12 colon, with M14 melanoma, with MOLT-4 leukemia, in the assay with NCI-H23 lung and with SK-MEL-2 melanoma was over 100 µM in each case. Further, the TGI with SNB-19 CNS, in the assay with SW-620 colon, in the assay on TK-10 renal and in the assay on UACC-62 melanoma was over 100 µM each time.
As to `O=c1[nH]nc(-c2ccccc2)c2[nH]c3c(c12)Cc1ccccc1-3`, the TGI in the assay with HOP-62 NSCLC is over 100 µM; with KM12 colon it was over 83.5 µM; in the assay on M14 melanoma, over 100 µM; with MOLT-4 leukemia, over 25.2 µM; with NCI-H23 lung, over 100 µM; in the assay on SK-MEL-2 melanoma it was over 100 µM. The TGI in the assay with SNB-19 CNS was over 100 µM; in the assay with SW-620 colon, over 100 µM; in the assay with TK-10 renal, over 100 µM; with UACC-62 melanoma, 2.69 µM.
On to `[N-]=[N+]=Nc1nc2ccccc2c(N=[N+]=[N-])c1Cl`, for which the TGI with HOP-62 NSCLC, in the assay on KM12 colon, in the assay with M14 melanoma, in the assay with MOLT-4 leukemia, with NCI-H23 lung and with SK-MEL-2 melanoma was over 100 µM throughout. For the same compound, the TGI in the assay with SNB-19 CNS, with SW-620 colon, in the assay on TK-10 renal and with UACC-62 melanoma was over 100 µM throughout.
Turning to `Cc1cc2c(c(C(=O)NCC(=O)O)c1)Oc1c(cc(C)cc1C(=O)NCC(=O)O)S2`, the TGI in the assay with HOP-62 NSCLC, in the assay with KM12 colon, in the assay with M14 melanoma, in the assay with MOLT-4 leukemia, in the assay with NCI-H23 lung and in the assay with SK-MEL-2 melanoma was over 100 µM each time. For the same compound, the TGI in the assay on SNB-19 CNS, with SW-620 colon, in the assay on TK-10 renal and with UACC-62 melanoma was over 100 µM throughout.
Regarding `O=C1C=CC(=O)c2c1ccc1c3ccccc3n(Cc3ccccc3)c21`, the TGI in the assay on HOP-62 NSCLC was over 100 µM; in the assay with KM12 colon, over 100 µM; in the assay with M14 melanoma, 42 µM; in the assay on MOLT-4 leukemia, over 38.4 µM; in the assay with NCI-H23 lung, 42.7 µM; in the assay on SK-MEL-2 melanoma, 99.6 µM. Further, the TGI in the assay with SNB-19 CNS is over 100 µM; in the assay on SW-620 colon it was 25.7 µM; in the assay on TK-10 renal it was 35.1 µM; with UACC-62 melanoma, 67.8 µM.
Turning to `COc1ccc(-n2c(N)c(C#N)c(C#N)c2-c2ccco2)cc1`, the TGI in the assay with HOP-62 NSCLC, in the assay on KM12 colon, in the assay on M14 melanoma, in the assay with MOLT-4 leukemia, with NCI-H23 lung and in the assay on SK-MEL-2 melanoma was over 100 µM each time. Moreover, the TGI in the assay with SNB-19 CNS, in the assay with SW-620 colon, with TK-10 renal and with UACC-62 melanoma was over 100 µM throughout.
